Data from US8680290B2, “Isoxazoline derivatives and their use as herbicides” (Syngenta Limited, priority 2004, dated 2014).

System: Monocotyledonous and dicotyledonous test plants
Assay: Example B1 herbicidal action, application pre-emergence (Table B1b)
Format: in vivo
Conditions: 250 g/ha, evaluated after 4 weeks
Protocol: Monocotyledonous and dicotyledonous test plants were sown in seed trays in standard soil. Immediately after sowing (pre-emergence) or after 8 to 9 days cultivation (post-emergence), the test compounds were applied by spraying in the form of an aqueous solution derived from the formulation of the technical active ingredient in 0.6 ml acetone and 45 ml formulation solution containing 10.6% Emulsogen EL (CAS RN 61791-12-6), 42.2% N-methylpyrrolidone, 42.2% dipropylene glycol monomethyl ether (CAS RN 34590-94-8) and 0.2% X-77 (CAS RN 11097-66-8). The test plants were then grown in a greenhouse under optimum conditions. After a test duration of 3 weeks (post-emergence) or 4 weeks (pre-emergence), the test was evaluated (10=total damage to plant, 0=no damage to plant).

SMILES	herbicidal action (damage rating 0-10), Amaranthus	herbicidal action (damage rating 0-10), Digitaria	herbicidal action (damage rating 0-10), Panicum	herbicidal action (damage rating 0-10), Setaria	herbicidal action (damage rating 0-10), Sida
CC1(C)CC([S+]([O-])C(c2c(F)cccc2F)C(F)(F)F)=NO1 (centres unmarked) [1.139]	0	8	0	7	0
Cc1cc(C(F)(Cl)S(=O)(=O)C2=NOC(C)(C)C2)no1 (centres unmarked) [4.01]	8	8	8	8	8
CC1(C)CC(S(=O)(=O)C(Br)c2cc(F)cc3c2OCOC3)=NO1 (centres unmarked) [1.103]	3	9	9	5	0
COc1c(C(F)(F)S(=O)(=O)C2=NOC(C)(C)C2)c(C(F)(F)F)nn1C [Compound No. 2.23, 3-[difluoro-(5-methoxy-1-methyl-3-trifluoromethyl-1H-pyrazol-4-yl)-methanesulfonyl]-5,5-dimethyl-4,5-dihydroisoxazole]	8	7	8	9	3
CC(=O)C(c1c(C(F)(F)F)nn(C)c1OCC(F)(F)F)S(=O)(=O)C1=NOC(C)(C)C1 (centres unmarked) [2.08]	4	2	9	–	2
Cn1nc(C(F)(F)F)c(C(C(=O)C(F)F)S(=O)(=O)C2=NOC(C)(C)C2)c1OCC(F)(F)F (centres unmarked) [2.06]	7	8	8	7	3
COc1ccccc1C(Br)S(=O)(=O)C1=NOC(C)(C)C1 (centres unmarked) [1.101]	9	8	8	8	0
Cc1noc(C)c1C(Cl)(Cl)S(=O)(=O)C1=NOC(C)(C)C1 [Compound No. 3.04]	3	9	10	9	0
CC1(C)CC(S(=O)(=O)C(Br)c2ccccc2OC(F)F)=NO1 (racemic) [1.78]	10	10	10	10	2
Cc1cc(C(F)(F)S(=O)(=O)C2=NOC(C)(C)C2)no1 [4.03]	9	10	–	10	7
CC1(C)CC(S(=O)(=O)C(C(=O)CCl)c2c(F)cccc2F)=NO1 (centres unmarked) [Compound No. 1.60]	7	9	10	9	0
CC1(C)CC([S+]([O-])C(Cl)c2c(F)cccc2Cl)=NO1 (single isomer, unassigned) [1.33]	0	8	10	7	0
CC1(C)CC(S(=O)(=O)C(Br)(Br)c2c(F)cccc2F)=NO1 [1.50]	10	9	10	10	7
COc1cc(C(Cl)S(=O)(=O)C2=NOC(C)(C)C2)on1 (centres unmarked) [Compound No. 5.01, 5-[chloro-(5,5-dimethyl-4,5-dihydroisoxazole-3-sulfonyl)-methyl]-3-methoxy-isoxazole]	0	8	–	8	2
CC1(C)CC(S(=O)(=O)C(Cn2ccnc2)c2c(F)cccc2F)=NO1 (racemic) [Compound No. 1.87]	3	7	5	7	0
Cn1nc(C(F)(F)F)c(C([S+]([O-])C2=NOC(C)(C)C2)C(F)(F)F)c1OCC(F)(F)F (centres unmarked) [Compound No. 2.35, 5,5-dimethyl-3-{2,2,2-trifluoro-1-[1-methyl-5-(2,2,2-trifluoro-ethoxy)-3-trifluoromethyl-1H-pyrazol-4-yl]-ethanesulfinyl}-4,5-dihydro-isoxazole]	10	10	9	5	0
Cn1nc(C(F)(F)F)c(C(F)(F)S(=O)(=O)C2=NOC(C)(C)C2)c1OCC(F)F [2.21]	10	10	10	10	8
CC1(C)CC(S(=O)(=O)C(Br)c2ccccc2-c2ccccc2)=NO1 (centres unmarked) [1.151]	5	0	8	7	4
Cc1ccc(F)c(C(Cl)S(=O)(=O)C2=NOC(C)(C)C2)c1F (centres unmarked) [1.145]	10	10	10	10	7
C=C(OC(C)=O)C(Cl)(c1c(F)cccc1F)S(=O)(=O)C1=NOC(C)(C)C1 (centres unmarked) [Compound No. 1.58]	5	8	9	7	3
CC1(C)CC(S(=O)(=O)C(Br)c2ccc(F)cc2F)=NO1 (centres unmarked) [1.150]	6	10	10	9	0
CC1(C)CC(S(=O)(=O)C(Cl)c2c(F)cccc2C(F)(F)F)=NO1 (racemic) [1.91]	3	10	–	9	10
CC1(C)CC(S(=O)(=O)C(F)(Cl)c2ccccc2F)=NO1 (racemic) [1.73]	10	10	10	10	8
CCC(Cl)(c1c(F)cccc1F)S(=O)(=O)C1=NOC(C)(C)C1 (centres unmarked) [1.16]	0	4	5	4	0
CC(=O)OC(C)=C(c1c(C(F)(F)F)nn(C)c1OCC(F)(F)F)S(=O)(=O)C1=NOC(C)(C)C1 [2.32]	7	4	7	4	0
Cc1noc(C)c1C(Cl)S(=O)(=O)C1=NOC(C)(C)C1 (centres unmarked) [Compound No. 3.03]	7	9	10	10	0
COc1cc(OC)cc(C(Br)S(=O)(=O)C2=NOC(C)(C)C2)c1 (racemic) [1.84]	10	9	10	9	0
COc1ccccc1C(Cl)S(=O)(=O)C1=NOC(C)(C)C1 (centres unmarked) [1.141]	5	9	9	9	0
CC1(C)CC(S(=O)(=O)C(Br)c2ccccc2F)=NO1 (racemic) [1.82]	10	9	10	9	0
CC1(C)CC(S(=O)(=O)C(C(=O)C2CC2)c2c(F)cccc2F)=NO1 (centres unmarked) [Compound No. 1.54]	0	8	8	8	0
